Source: ChEMBL document CHEMBL3124838, “Discovery of 6-aryl-azabenzimidazoles that inhibit the TBK1/IKK-ε kinases” (Bioorg Med Chem Lett, 2014)

The molecules below were run against Cyclin-dependent kinase 1/cyclin B1 (Homo sapiens) (UniProt P06493+P14635) (assay: Inhibition of human CDK1/cyclin B assessed as residual activity at 1 uM relative to control).
Type: protein-complex assay

Cyclin-dependent kinase 1/cyclin B1 (Homo sapiens), sequence (P06493 whole entry, looked up): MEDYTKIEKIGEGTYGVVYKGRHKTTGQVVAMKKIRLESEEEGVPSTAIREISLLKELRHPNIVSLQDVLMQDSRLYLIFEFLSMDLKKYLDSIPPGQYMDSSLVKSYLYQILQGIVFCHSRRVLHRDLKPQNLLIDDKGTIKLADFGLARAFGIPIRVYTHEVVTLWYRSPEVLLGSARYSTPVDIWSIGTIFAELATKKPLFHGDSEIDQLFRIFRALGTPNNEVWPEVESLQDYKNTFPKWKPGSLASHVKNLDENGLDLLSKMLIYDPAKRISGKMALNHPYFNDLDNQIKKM
Cyclin-dependent kinase 1/cyclin B1 (Homo sapiens), sequence (P14635 whole entry, looked up): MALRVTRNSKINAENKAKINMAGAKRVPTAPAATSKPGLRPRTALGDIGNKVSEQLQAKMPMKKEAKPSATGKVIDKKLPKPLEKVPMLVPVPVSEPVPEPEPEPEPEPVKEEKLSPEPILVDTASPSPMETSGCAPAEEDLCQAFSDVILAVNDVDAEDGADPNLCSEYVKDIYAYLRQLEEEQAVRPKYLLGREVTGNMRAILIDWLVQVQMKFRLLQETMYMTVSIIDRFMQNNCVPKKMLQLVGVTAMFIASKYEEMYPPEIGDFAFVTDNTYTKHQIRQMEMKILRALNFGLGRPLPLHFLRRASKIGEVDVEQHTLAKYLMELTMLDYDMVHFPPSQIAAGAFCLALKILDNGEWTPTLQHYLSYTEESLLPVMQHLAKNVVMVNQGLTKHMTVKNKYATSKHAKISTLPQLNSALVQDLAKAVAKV

Compared with COc1ccc(-c2nc3cc(-c4csc(C(=O)NCC(C)(C)C)c4)cnc3[nH]2)cc1, COc1ccc(-c2nc3cc(-c4csc(C(=O)NCC(C)C)c4)cnc3[nH]2)cc1 is lower in Activity: 89% for the first, 68% for the second.

COc1ccc(-c2nc3cc(-c4csc(C(=O)NCCC(C)C)c4)cnc3[nH]2)cc1 was tested, and the Activity was 68%.

These molecules were tested against Mast/stem cell growth factor receptor Kit (Homo sapiens) (UniProt P10721) (assay: Inhibition of human cKIT assessed as residual activity at 1 uM relative to control).
Mast/stem cell growth factor receptor Kit (Homo sapiens), sequence (P10721 whole entry): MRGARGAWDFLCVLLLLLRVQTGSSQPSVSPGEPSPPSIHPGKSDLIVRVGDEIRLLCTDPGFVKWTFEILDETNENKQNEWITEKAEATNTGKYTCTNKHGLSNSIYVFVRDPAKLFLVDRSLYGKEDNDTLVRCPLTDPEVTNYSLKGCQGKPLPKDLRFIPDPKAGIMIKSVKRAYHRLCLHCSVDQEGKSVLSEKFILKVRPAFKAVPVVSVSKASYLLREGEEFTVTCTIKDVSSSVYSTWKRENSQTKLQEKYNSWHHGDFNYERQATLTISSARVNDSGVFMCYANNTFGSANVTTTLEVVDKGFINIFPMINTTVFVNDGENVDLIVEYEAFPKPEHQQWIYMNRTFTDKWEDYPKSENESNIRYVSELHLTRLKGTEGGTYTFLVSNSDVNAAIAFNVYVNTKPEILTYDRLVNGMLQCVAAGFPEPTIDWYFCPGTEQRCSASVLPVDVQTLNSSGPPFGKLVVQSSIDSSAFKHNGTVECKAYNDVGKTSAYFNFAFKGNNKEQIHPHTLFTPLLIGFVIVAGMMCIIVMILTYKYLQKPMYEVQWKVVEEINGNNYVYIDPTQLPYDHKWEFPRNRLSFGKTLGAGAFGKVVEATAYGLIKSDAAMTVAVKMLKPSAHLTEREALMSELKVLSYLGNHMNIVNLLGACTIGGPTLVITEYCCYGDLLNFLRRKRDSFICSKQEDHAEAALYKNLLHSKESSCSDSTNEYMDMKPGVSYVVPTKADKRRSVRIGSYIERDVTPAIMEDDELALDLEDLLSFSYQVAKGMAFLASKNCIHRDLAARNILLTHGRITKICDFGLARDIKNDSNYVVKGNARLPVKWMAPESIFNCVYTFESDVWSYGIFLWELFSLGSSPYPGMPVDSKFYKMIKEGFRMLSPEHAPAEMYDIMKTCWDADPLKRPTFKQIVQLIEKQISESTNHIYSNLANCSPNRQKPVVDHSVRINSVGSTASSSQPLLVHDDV

Going from COc1ccc(-c2nc3cc(-c4csc(C(=O)NCC(C)(C)C)c4)cnc3[nH]2)cc1 to COc1ccc(-c2nc3cc(-c4csc(C(=O)NCC(C)C)c4)cnc3[nH]2)cc1, the Activity falls from 112% to 103%.

COc1ccc(-c2nc3cc(-c4csc(C(=O)NCCC(C)C)c4)cnc3[nH]2)cc1 gave an Activity of 107%.

What follows are molecules tested against Serine/threonine-protein kinase PAK 1 (Homo sapiens) (UniProt Q13153) (assay: Inhibition of human PAK1 assessed as residual activity at 1 uM relative to control).
Serine/threonine-protein kinase PAK 1 (Homo sapiens), sequence (Q13153 whole entry): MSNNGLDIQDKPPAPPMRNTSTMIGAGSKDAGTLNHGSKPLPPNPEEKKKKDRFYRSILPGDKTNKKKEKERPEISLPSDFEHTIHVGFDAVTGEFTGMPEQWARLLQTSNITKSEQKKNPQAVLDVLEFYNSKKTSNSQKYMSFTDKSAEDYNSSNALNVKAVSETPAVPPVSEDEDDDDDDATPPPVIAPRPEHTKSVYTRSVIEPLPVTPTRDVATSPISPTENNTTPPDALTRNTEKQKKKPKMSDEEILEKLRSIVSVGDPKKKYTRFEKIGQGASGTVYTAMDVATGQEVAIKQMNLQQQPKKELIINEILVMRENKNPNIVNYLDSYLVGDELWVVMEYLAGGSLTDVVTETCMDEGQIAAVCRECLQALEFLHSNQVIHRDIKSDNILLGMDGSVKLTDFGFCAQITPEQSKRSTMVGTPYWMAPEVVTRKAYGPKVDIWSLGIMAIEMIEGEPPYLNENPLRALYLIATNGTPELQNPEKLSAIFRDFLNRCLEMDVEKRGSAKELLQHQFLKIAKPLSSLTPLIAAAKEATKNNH

Compared with COc1ccc(-c2nc3cc(-c4csc(C(=O)NCC(C)(C)C)c4)cnc3[nH]2)cc1, COc1ccc(-c2nc3cc(-c4csc(C(=O)NCC(C)C)c4)cnc3[nH]2)cc1 is higher in Activity: 94% for the first, 105% for the second.

COc1ccc(-c2nc3cc(-c4csc(C(=O)NCCC(C)C)c4)cnc3[nH]2)cc1 showed an Activity of 96%.

These molecules were tested against Fibroblast growth factor receptor 2 (Homo sapiens) (UniProt P21802) (assay: Inhibition of human FGFR2 assessed as residual activity at 1 uM relative to control).
Fibroblast growth factor receptor 2 (Homo sapiens), sequence (P21802 22-821 limits assumed): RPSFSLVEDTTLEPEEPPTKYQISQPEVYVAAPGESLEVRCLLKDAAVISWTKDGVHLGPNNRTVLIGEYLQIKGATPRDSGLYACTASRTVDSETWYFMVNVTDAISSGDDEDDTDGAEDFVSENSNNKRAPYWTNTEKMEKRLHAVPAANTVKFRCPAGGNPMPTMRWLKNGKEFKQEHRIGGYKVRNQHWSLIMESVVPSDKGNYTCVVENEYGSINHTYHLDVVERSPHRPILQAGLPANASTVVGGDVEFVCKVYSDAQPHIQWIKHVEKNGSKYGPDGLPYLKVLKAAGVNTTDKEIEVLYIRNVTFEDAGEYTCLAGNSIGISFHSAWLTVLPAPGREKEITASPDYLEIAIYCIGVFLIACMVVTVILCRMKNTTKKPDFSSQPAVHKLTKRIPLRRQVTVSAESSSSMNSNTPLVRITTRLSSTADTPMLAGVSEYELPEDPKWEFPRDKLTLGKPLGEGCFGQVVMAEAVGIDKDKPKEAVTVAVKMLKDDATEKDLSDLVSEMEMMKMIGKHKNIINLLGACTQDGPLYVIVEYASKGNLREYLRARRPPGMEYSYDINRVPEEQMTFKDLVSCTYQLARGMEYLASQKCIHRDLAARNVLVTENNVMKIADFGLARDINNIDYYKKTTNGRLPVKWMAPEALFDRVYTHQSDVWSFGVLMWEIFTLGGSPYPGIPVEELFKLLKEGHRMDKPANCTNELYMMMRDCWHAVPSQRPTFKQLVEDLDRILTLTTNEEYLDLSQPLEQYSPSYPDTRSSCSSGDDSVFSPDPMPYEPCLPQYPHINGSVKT

Compared with COc1ccc(-c2nc3cc(-c4csc(C(=O)NCC(C)(C)C)c4)cnc3[nH]2)cc1, COc1ccc(-c2nc3cc(-c4csc(C(=O)NCC(C)C)c4)cnc3[nH]2)cc1 is lower in Activity: 100% for the first, 88% for the second.

COc1ccc(-c2nc3cc(-c4csc(C(=O)NCCC(C)C)c4)cnc3[nH]2)cc1 gave an Activity of 90%.

These molecules were tested against PI3-kinase p110-alpha/p85-alpha (Homo sapiens) (UniProt P27986+P42336) (assay: Inhibition of human PI3K p110alpha/p85alpha assessed as residual activity at 1 uM relative to control).
Type: protein-complex assay

Compared with COc1ccc(-c2nc3cc(-c4csc(C(=O)NCC(C)(C)C)c4)cnc3[nH]2)cc1, COc1ccc(-c2nc3cc(-c4csc(C(=O)NCC(C)C)c4)cnc3[nH]2)cc1 is higher in Activity: 86% for the first, 91% for the second.

Molecule COc1ccc(-c2nc3cc(-c4csc(C(=O)NCCC(C)C)c4)cnc3[nH]2)cc1 has an Activity of 88%.

These molecules were tested against T1, Serine/threonine-protein kinase 4 (Homo sapiens) (UniProt Q13043) (assay: Inhibition of human MST1 assessed as residual activity at 1 uM relative to control).
T1 sequence (whole entry): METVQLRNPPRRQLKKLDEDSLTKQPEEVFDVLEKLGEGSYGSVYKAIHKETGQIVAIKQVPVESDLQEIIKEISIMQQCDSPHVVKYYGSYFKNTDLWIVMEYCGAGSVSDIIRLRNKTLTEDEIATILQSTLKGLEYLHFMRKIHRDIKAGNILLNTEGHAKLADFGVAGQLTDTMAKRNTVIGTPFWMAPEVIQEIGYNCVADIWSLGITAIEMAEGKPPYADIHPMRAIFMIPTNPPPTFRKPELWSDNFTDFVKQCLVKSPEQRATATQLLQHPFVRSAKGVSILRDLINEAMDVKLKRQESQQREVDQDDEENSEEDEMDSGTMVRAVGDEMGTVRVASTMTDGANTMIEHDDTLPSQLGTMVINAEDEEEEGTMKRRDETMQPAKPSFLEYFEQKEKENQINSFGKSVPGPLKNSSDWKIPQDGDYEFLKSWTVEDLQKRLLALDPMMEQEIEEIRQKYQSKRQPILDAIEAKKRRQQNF

Compared with COc1ccc(-c2nc3cc(-c4csc(C(=O)NCC(C)(C)C)c4)cnc3[nH]2)cc1, COc1ccc(-c2nc3cc(-c4csc(C(=O)NCC(C)C)c4)cnc3[nH]2)cc1 is lower in Activity: 122% for the first, 115% for the second.

Work on COc1ccc(-c2nc3cc(-c4csc(C(=O)NCCC(C)C)c4)cnc3[nH]2)cc1 yielded an Activity of 116%.

The molecules below were run against T2, Aurora kinase C (Homo sapiens) (UniProt Q9UQB9) (assay: Inhibition of human Aurora-C assessed as residual activity at 1 uM relative to control).
T2 sequence (whole entry): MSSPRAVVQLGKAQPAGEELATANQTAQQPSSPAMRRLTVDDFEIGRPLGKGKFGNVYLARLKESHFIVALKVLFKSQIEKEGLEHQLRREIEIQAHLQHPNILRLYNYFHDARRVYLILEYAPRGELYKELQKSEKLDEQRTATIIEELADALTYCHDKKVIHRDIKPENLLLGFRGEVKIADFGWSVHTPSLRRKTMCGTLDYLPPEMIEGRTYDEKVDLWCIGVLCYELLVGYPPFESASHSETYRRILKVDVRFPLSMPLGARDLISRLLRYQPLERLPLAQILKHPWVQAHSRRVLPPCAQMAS

COc1ccc(-c2nc3cc(-c4csc(C(=O)NCC(C)(C)C)c4)cnc3[nH]2)cc1 and COc1ccc(-c2nc3cc(-c4csc(C(=O)NCC(C)C)c4)cnc3[nH]2)cc1 are the same in Activity: 76% for the first, 76% for the second.

In the case of COc1ccc(-c2nc3cc(-c4csc(C(=O)NCCC(C)C)c4)cnc3[nH]2)cc1, the Activity was 77%.

What follows are molecules tested against Vascular endothelial growth factor receptor 2 (Homo sapiens) (UniProt P35968) (assay: Inhibition of human KDR assessed as residual activity at 1 uM relative to control).

Going from COc1ccc(-c2nc3cc(-c4csc(C(=O)NCC(C)(C)C)c4)cnc3[nH]2)cc1 to COc1ccc(-c2nc3cc(-c4csc(C(=O)NCC(C)C)c4)cnc3[nH]2)cc1, the Activity falls from 31% to 14%.

Molecule COc1ccc(-c2nc3cc(-c4csc(C(=O)NCCC(C)C)c4)cnc3[nH]2)cc1 has an Activity of 23%.

Species: Homo sapiens
Experiment: Inhibition of human PKA assessed as residual activity at 1 uM relative to control

Going from COc1ccc(-c2nc3cc(-c4csc(C(=O)NCC(C)(C)C)c4)cnc3[nH]2)cc1 to COc1ccc(-c2nc3cc(-c4csc(C(=O)NCC(C)C)c4)cnc3[nH]2)cc1, the Activity rises from 82% to 89%.

Molecule COc1ccc(-c2nc3cc(-c4csc(C(=O)NCCC(C)C)c4)cnc3[nH]2)cc1 has an Activity of 97%.

What follows are molecules tested against T3, NUAK family SNF1-like kinase 1 (Homo sapiens) (UniProt O60285) (assay: Inhibition of human ARK5 assessed as residual activity at 1 uM relative to control).
T3 sequence (whole entry): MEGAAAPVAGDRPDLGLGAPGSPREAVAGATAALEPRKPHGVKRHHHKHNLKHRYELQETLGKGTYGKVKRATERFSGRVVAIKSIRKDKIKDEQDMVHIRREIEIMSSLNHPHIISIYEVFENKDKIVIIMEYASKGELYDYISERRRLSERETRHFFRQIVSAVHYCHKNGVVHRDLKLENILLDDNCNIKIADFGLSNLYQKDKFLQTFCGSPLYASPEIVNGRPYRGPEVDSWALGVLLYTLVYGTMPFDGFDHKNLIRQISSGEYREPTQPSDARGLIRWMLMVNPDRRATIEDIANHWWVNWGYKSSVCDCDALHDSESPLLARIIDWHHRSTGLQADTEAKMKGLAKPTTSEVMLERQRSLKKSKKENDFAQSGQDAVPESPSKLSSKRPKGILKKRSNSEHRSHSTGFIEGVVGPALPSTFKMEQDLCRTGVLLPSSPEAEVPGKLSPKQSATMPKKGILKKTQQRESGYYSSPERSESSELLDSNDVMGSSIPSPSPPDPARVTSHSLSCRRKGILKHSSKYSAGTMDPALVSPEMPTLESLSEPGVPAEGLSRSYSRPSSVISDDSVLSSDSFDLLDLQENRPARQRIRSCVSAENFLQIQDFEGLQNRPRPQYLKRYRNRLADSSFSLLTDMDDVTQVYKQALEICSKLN

Going from COc1ccc(-c2nc3cc(-c4csc(C(=O)NCC(C)(C)C)c4)cnc3[nH]2)cc1 to COc1ccc(-c2nc3cc(-c4csc(C(=O)NCC(C)C)c4)cnc3[nH]2)cc1, the Activity falls from 79% to 68%.

COc1ccc(-c2nc3cc(-c4csc(C(=O)NCCC(C)C)c4)cnc3[nH]2)cc1 was tested, and the Activity was 76%.

Each molecule was assayed against T4, Activin receptor type-1B (Homo sapiens) (UniProt P36896) (assay: Inhibition of human ALK4 assessed as residual activity at 1 uM relative to control).
T4 sequence (whole entry): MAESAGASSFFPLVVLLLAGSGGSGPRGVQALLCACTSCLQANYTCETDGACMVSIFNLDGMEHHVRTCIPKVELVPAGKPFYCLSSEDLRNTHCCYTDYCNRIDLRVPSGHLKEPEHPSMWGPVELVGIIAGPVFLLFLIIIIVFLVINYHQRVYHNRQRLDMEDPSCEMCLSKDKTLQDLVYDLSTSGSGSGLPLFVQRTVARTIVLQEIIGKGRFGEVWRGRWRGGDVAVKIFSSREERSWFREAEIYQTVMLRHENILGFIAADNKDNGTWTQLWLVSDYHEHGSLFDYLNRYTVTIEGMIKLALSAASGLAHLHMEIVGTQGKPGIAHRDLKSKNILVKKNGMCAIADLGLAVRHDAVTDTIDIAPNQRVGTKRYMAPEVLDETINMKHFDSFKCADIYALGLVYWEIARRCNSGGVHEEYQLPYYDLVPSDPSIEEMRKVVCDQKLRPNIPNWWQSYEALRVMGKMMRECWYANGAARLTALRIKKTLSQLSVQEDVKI

Going from COc1ccc(-c2nc3cc(-c4csc(C(=O)NCC(C)(C)C)c4)cnc3[nH]2)cc1 to COc1ccc(-c2nc3cc(-c4csc(C(=O)NCC(C)C)c4)cnc3[nH]2)cc1, the Activity rises from 85% to 96%.

With COc1ccc(-c2nc3cc(-c4csc(C(=O)NCCC(C)C)c4)cnc3[nH]2)cc1 the Activity was 85%.

These molecules were tested against Tyrosine-protein kinase ABL2 (Homo sapiens) (UniProt P42684) (assay: Inhibition of human ARG assessed as residual activity at 1 uM relative to control).
Tyrosine-protein kinase ABL2 (Homo sapiens), sequence (P42684 whole entry): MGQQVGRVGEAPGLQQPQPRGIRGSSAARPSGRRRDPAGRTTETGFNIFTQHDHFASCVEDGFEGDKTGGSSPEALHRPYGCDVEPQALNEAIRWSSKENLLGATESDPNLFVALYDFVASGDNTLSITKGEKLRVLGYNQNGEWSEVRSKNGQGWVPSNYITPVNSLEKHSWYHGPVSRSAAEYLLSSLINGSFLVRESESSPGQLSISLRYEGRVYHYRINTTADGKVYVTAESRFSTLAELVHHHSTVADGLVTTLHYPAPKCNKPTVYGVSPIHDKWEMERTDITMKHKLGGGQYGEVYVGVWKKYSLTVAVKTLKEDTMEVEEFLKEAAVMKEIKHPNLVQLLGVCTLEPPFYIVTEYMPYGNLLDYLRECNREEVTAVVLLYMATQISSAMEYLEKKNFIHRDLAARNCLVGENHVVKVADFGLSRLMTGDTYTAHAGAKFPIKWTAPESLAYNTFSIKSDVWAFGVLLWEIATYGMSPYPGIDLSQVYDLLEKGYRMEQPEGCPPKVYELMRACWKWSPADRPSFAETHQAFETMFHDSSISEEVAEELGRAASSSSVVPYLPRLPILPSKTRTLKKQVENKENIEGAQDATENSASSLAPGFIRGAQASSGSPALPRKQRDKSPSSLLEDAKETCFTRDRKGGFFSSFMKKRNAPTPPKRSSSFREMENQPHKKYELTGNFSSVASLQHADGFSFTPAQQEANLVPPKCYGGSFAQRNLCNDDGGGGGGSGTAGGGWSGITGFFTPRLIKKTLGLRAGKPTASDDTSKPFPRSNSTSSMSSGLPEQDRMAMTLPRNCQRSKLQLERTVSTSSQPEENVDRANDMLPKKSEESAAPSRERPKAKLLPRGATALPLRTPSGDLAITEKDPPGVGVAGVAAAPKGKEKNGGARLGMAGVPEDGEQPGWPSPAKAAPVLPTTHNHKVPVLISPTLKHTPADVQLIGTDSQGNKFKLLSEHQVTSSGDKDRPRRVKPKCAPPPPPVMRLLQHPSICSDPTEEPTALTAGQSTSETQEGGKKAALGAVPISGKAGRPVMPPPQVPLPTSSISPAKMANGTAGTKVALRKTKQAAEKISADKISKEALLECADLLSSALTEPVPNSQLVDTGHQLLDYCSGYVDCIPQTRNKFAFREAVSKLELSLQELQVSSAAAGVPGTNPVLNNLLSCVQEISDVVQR

Going from COc1ccc(-c2nc3cc(-c4csc(C(=O)NCC(C)(C)C)c4)cnc3[nH]2)cc1 to COc1ccc(-c2nc3cc(-c4csc(C(=O)NCC(C)C)c4)cnc3[nH]2)cc1, the Activity falls from 60% to 38%.

In the case of COc1ccc(-c2nc3cc(-c4csc(C(=O)NCCC(C)C)c4)cnc3[nH]2)cc1, the Activity was 52%.

These molecules were tested against Tyrosine-protein kinase receptor UFO (Homo sapiens) (UniProt P30530) (assay: Inhibition of human AXL assessed as residual activity at 1 uM relative to control).

Compared with COc1ccc(-c2nc3cc(-c4csc(C(=O)NCC(C)(C)C)c4)cnc3[nH]2)cc1, COc1ccc(-c2nc3cc(-c4csc(C(=O)NCC(C)C)c4)cnc3[nH]2)cc1 is lower in Activity: 103% for the first, 98% for the second.

Work on COc1ccc(-c2nc3cc(-c4csc(C(=O)NCCC(C)C)c4)cnc3[nH]2)cc1 yielded an Activity of 98%.

What follows are molecules tested against Mitogen-activated protein kinase 14 (Homo sapiens) (UniProt Q16539) (assay: Inhibition of human SAPK2alpha assessed as residual activity at 1 uM relative to control).
Mitogen-activated protein kinase 14 (Homo sapiens), sequence (Q16539 whole entry): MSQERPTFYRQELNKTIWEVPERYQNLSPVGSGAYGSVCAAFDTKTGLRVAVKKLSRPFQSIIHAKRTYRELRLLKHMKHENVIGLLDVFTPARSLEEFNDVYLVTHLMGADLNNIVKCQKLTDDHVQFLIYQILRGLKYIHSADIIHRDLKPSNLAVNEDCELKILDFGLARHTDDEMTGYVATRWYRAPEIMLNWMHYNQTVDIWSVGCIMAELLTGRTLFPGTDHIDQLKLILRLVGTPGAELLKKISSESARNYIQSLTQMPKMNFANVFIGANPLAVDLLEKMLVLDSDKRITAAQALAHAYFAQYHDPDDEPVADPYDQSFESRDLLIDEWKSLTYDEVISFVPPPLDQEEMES

Going from COc1ccc(-c2nc3cc(-c4csc(C(=O)NCC(C)(C)C)c4)cnc3[nH]2)cc1 to COc1ccc(-c2nc3cc(-c4csc(C(=O)NCC(C)C)c4)cnc3[nH]2)cc1, the Activity rises from 93% to 107%.

For COc1ccc(-c2nc3cc(-c4csc(C(=O)NCCC(C)C)c4)cnc3[nH]2)cc1, the Activity was 111%.
